This passage reports carcinogen call results from PubChem BioAssay AID1259411 (Chemical Carcinogenesis Research Information System (CCRIS), 2018).

The series deals with rodent carcinogenicity bioassays, tumor incidence. In words: CCRIS carcinogenicity studies. To be noted: Dose: 0, Dose: 0. An outline of the steps: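 Archive of carcinogenicity, mutagenicity, tumor promotion and tumor inhibition results drawn from journals, NCI reports and other sources, expert-reviewed; covers 1985-2011 and is no longer updated.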

The source made the active and inactive calls. No rule for the calls is given here.

Consider `O=c1c(O)c(-c2ccc(O)c(O)c2)oc2cc(O)cc(O)c12`, for which the carcinogen call runs as follows: (Species: RAT, Strain/Sex: F344/FEMALE, Route: ORAL, 0.1, 0.2% IN DIET FOR DURATION OF STUDY (STUDY DURATION: 64 WK), 0.1, 0.2% IN DIET FOR DURATION OF STUDY (STUDY DURATION: 64 WK)) “inactive; negative”; (Species: RAT, Strain/Sex: F344/FEMALE, Route: ORAL, 1.25, 5.0% IN DIET FOR 104 WK (STUDY DURATION: 112 WK), 1.25, 5.0% IN DIET FOR 104 WK (STUDY DURATION: 112 WK)) “inactive; negative”; (Species: RAT, Strain/Sex: F344/FEMALE, Route: ORAL, 1,000, 10,000, 40,000 PPM IN DIET FOR 104 WK (STUDY DURATION: 104 WK), 1,000, 10,000, 40,000 PPM IN DIET FOR 104 WK (STUDY DURATION: 104 WK)) “inactive; negative”; (Species: RAT, Strain/Sex: F344/MALE, Route: ORAL, 0.1, 0.2% IN DIET FOR DURATION OF STUDY (STUDY DURATION: 64 WK), 0.1, 0.2% IN DIET FOR DURATION OF STUDY (STUDY DURATION: 64 WK)) “inactive; negative”; (Species: RAT, Strain/Sex: F344/MALE, Route: ORAL, 1.25, 5.0% IN DIET FOR 104 WK (STUDY DURATION: 112 WK), 1.25, 5.0% IN DIET FOR 104 WK (STUDY DURATION: 112 WK)) “inactive; negative”; (Species: RAT, Strain/Sex: F344/MALE, Route: ORAL, 1,000, 10,000, 40,000 PPM IN DIET FOR 104 WK (STUDY DURATION: 104 WK), 1,000, 10,000, 40,000 PPM IN DIET FOR 104 WK (STUDY DURATION: 104 WK), Tumor Site: Type of Lesion: KIDNEY (RENAL TUBULE): ADENOMA) “active; positive”.

As for `O=C1[C@H]2CC=CC[C@H]2C(=O)N1SC(Cl)(Cl)Cl`, the carcinogen call reads like this: (Species: MOUSE, Strain/Sex: B6C3F1/MALE, Route: ORAL, 8000, 16000 PPM IN DIET, 8000, 16000 PPM IN DIET, Tumor Site: Type of Lesion: DUODENUM: ADENOMATOUS POLYP (NOS) OR ADENOCARCINOMA IN ADENOMATOUS POLYP) “active; positive”; (Species: MOUSE, Strain/Sex: SWISS/FEMALE, Route: DERMAL, 450 UG IN 200 µL DMSO 3/WK FOR 52 WK (STUDY DURATION: 52 WK)) “inactive; negative”; (Species: Mouse, Strain/Sex: Swiss CD-1/Female (80/dose), Route: Oral, 2000/6000, 6000/10,000, 10,000/16,000 ppm in diet for 113 wk (lower dose first 4 wk, higher dose for remainder of stu, 2000/6000, 6000/10,000, 10,000/16,000 ppm in diet for 113 wk (lower dose first 4 wk, higher dose for remainder of stu) “inactive; negative (purity of 90.7%; study details not given in source)”; (Species: Mouse, Strain/Sex: Swiss CD-1/Male (80/dose), Route: Oral, 2000/6000, 6000/10,000, 10,000/16,000 ppm in diet for 113 wk (lower dose first 4 wk, higher dose for remainder of stu, 2000/6000, 6000/10,000, 10,000/16,000 ppm in diet for 113 wk (lower dose first 4 wk, higher dose for remainder of stu, Tumor Site: Type of Lesion: INTESTINE: Adenomas and adenocarcinomas in jejunum) “active; positive (10,000 ppm group) (purity of 90.7%; study details n ot given in source”; (Species: RAT, Strain/Sex: OSBORNE-MENDEL/FEMALE, Route: ORAL, 2525, 6060 PPM IN DIET, TWA, 2525, 6060 PPM IN DIET, TWA) “inactive; negative”; (Species: RAT, Strain/Sex: OSBORNE-MENDEL/MALE, Route: ORAL, 2525, 6060 PPM IN DIET, TWA, 2525, 6060 PPM IN DIET, TWA) “inactive; negative”. Further, the carcinogen call was “inactive; negative (purity of 89%; study details not given in source)” (Species: Rat, Strain/Sex: CD/Female (50/group), Route: Oral, 25, 100, 250 mg/kg/day in diet for 2 yr, 25, 100, 250 mg/kg/day in diet for 2 yr) and “active; positive (purity of 89%; study details not given in source)” (Species: Rat, Strain/Sex: CD/Male (50/group), Route: Oral, 25, 100, 250 mg/kg/day in diet for 2 yr, 25, 100, 250 mg/kg/day in diet for 2 yr, Tumor Site: Type of Lesion: KIDNEY: Renal tubular adenomas or carcinomas (1, 1, 3, 4)).

For the molecule `O=C(O)C(Br)Br`, the carcinogen call by setting is: (Species: Mouse, Strain/Sex: B6C3F1/Female, Route: Oral, 50, 500, 1,000 mg/l in drinking water for 2 yr, 50, 500, 1,000 mg/l in drinking water for 2 yr, Tumor Site: Type of Lesion: Liver: Hepatocellular adenoma (19/49; 26/50; 32/50; 35/49), Hepatocellular carcinoma (3/49, 3/50, 12/50, 8/49), Hepatoce, Tumor Site: Type of Lesion: Liver: Hepatocellular adenoma (19/49; 26/50; 32/50; 35/49), Hepatocellular carcinoma (3/49, 3/50, 12/50, 8/49), Hepatoce) “active; positive (ntp reports as clear evidence)”; (Species: Mouse, Strain/Sex: B6C3F1/Male, Route: Oral, 50, 500, 1,000 mg/l in drinking water for 2 yr, 50, 500, 1,000 mg/l in drinking water for 2 yr, Tumor Site: Type of Lesion: Liver: Hepatocellular adenoma (18/49; 37/50; 42/50), Hepatocellular carcinoma (14/49, 9/50, 19/50, 26/50), Hepato, Tumor Site: Type of Lesion: Liver: Hepatocellular adenoma (18/49; 37/50; 42/50), Hepatocellular carcinoma (14/49, 9/50, 19/50, 26/50), Hepato) “active; positive (ntp reports as clear evidence)”; (Species: Rat, Strain/Sex: F344/N/Female, Route: Oral, 50, 500, 1000 mg/l in drinking water for 2 yr, 50, 500, 1000 mg/l in drinking water for 2 yr, Tumor Site: Type of Lesion: All organs: Mononuclear cell leukemia (11/50, 13/50, 16/50, 22/50)) “active; positive trend (not statistically significant) (ntp reports as some evidence)”; (Species: Rat, Strain/Sex: F344/N/Male, Route: Oral, 50, 500, 1000 mg/l in drinking water continuous for 2 yr, 50, 500, 1000 mg/l in drinking water continuous for 2 yr, Tumor Site: Type of Lesion: All organs: Malignant mesothelioma (3/50, 1/50, 0/50, 10/50), Mononuclear cell leukemia (17/50, 31/50, 24/50, 13/50)) “active; positive (malignant mesothelioma) (ntp reports as some evidence); mononuclear ce”.

As for `CC(CN1CC(=O)NC(=O)C1)N1CC(=O)NC(=O)C1` (stereo unspecified), the carcinogen call is “active; positive” (Species: MOUSE, Strain/Sex: B6C3F1/FEMALE, Route: INTRAPERITONEAL, 40, 80 MG/KG IN BUFFERED SALINE 3/WK FOR 52 WK, 40, 80 MG/KG IN BUFFERED SALINE 3/WK FOR 52 WK, Tumor Site: Type of Lesion: LYMPHATIC SYSTEM: HISTIOCYTIC LYMPHOMA); “inactive; negative” (Species: MOUSE, Strain/Sex: B6C3F1/MALE, Route: INTRAPERITONEAL, 40, 80 MG/KG IN BUFFERED SALINE 3/WK FOR 52 WK, 40, 80 MG/KG IN BUFFERED SALINE 3/WK FOR 52 WK); “active; positive” (Species: RAT, Strain/Sex: SPRAGUE-DAWLEY/FEMALE, Route: INTRAPERITONEAL, 48, 96 MG/KG IN BUFFERED SALINE 3/WK FOR 52 WK, 48, 96 MG/KG IN BUFFERED SALINE 3/WK FOR 52 WK, Tumor Site: Type of Lesion: UTERUS: ADENOCARCINOMA (NOS)); “inactive; negative” (Species: RAT, Strain/Sex: SPRAGUE-DAWLEY/MALE, Route: INTRAPERITONEAL, 48, 96 MG/KG IN BUFFERED SALINE 3/WK FOR 52 WK, 48, 96 MG/KG IN BUFFERED SALINE 3/WK FOR 52 WK).

For `Cc1nn(C)c(Oc2ccccc2)c1/C=N/OCc1ccc(C(=O)OC(C)(C)C)cc1`, the carcinogen call (Species: Mouse, Strain/Sex: ICR (Crj:CD-1)/Female (50/Group), Route: Oral, 25, 100, 400, 800 ppm (0; 2.4; 10.2; 41.4; 73.1 mg/kg/day) for 18 mo, study duration 18 mo, 25, 100, 400, 800 ppm (0; 2.4; 10.2; 41.4; 73.1 mg/kg/day) for 18 mo, study duration 18 mo) is “inactive; negative”; the carcinogen call (Species: Mouse, Strain/Sex: ICR (Crj:CD-1)/Male (50/Group), Route: Oral, 25, 100, 400, 800 ppm (0; 2.4; 9.5; 38.0; 69.6 mg/kg/day) for 18 mo, study duration 18 mo, 25, 100, 400, 800 ppm (0; 2.4; 9.5; 38.0; 69.6 mg/kg/day) for 18 mo, study duration 18 mo) is “inactive; negative”; the carcinogen call (Species: Rat, Strain/Sex: CD/Female (50/Group), Route: Oral, 10, 25, 75, 150 ppm of 97.2% fenpyroximate (0; 0.49; 1.21; 3.81; 8.01 mg/kg/day) for 104 wk, study duration 104 wk, 10, 25, 75, 150 ppm of 97.2% fenpyroximate (0; 0.49; 1.21; 3.81; 8.01 mg/kg/day) for 104 wk, study duration 104 wk) was “inactive; negative”; the carcinogen call (Species: Rat, Strain/Sex: CD/Male (50/Group), Route: Oral, 10, 25, 75, 150 ppm of 97.2% fenpyroximate (0; 0.40; 0.97; 3.00; 6.20 mg/kg/day) for 104 wk, study duration 104 wk, 10, 25, 75, 150 ppm of 97.2% fenpyroximate (0; 0.40; 0.97; 3.00; 6.20 mg/kg/day) for 104 wk, study duration 104 wk) is “inactive; negative”.
